Read-outs that look alike come from different tables or passages of the source.
Columns and labels:
[1] = tested on: reconstructed human skin (RS) tissues; details: cited from earlier work; for detection of DNA damage, RS Comet assay versus RSMN assay: direct treatment with genotoxic metabolites of 2-AAF
RS tissues = details: cited from earlier work; for RSMN result with the 72-h protocol: contract research lab
[2] = topically-applied; cited from earlier work
[3] = tested on: EpiDerm™ EPI-200-MNA skin tissues
[4] = tested on: EpiDerm™ EPI-200-MNA skin tissues; details: for top/maximum dose tested, limited by excessive or strong cytotoxicity: % VCC or % BN
[5] = cited from earlier work
multiple tissues = details: mice, single i.p. injection; cited from earlier work
stomach, liver = details: rats, daily treatment for 3 days, initial evaluation; cited from earlier work
mouse lymphoma cells = details: cited from earlier work
[6] = tested on: V79, CHO, CHL, HuLy, TK6, HepG2, L5178Y cells; details: cited from earlier work
[7] = tested on: CHO, CHL, V79, HuLy cells; details: cited from earlier work
[8] = multiple treatments of RS tissues
[9] = three treatments, vs solvent control
[10] = two treatments, vs solvent control

For `CC(=O)Nc1ccc2c(c1)Cc1ccccc1-2` [2-Acetylaminofluorene (2-AAF), 2-Acetylaminofluorene], which “DNA damage in the RS Comet assay” value [1] is on record?
Its value is “weak, but statistically significant and reproducible increase in DNA damage”.

And the “response in the RS Comet assay” value [1, 8]?
Its value is “significant response”.

What about the “response in the RSMN assay” value (RS tissues; [8]) of the same compound?
Its value is “not in the RSMN assay”.

And the “metabolism in human skin explants” value [2]?
Its value is “evidence for metabolism”.

And the “classification in the RSMN assay by Lab B” value (shortened to “classification … by Lab B”) ([3]; overall call)?
Its value is “negative”.

And the “classification in the RSMN assay by Lab C” value ([3]; overall call)?
The value was “negative”.

And the “classification in the RSMN assay by Lab D” value ([3]; overall call)?
Its value is “negative”.

And the “% MN-BN response in individual experiment(s), Lab B, 72-h protocol” value (from here on “% MN-BN response … Lab B, 72-h protocol”) [3, 9]?
Its value is “without a significant response”.

And the “% MN-BN response in individual experiment(s), Lab C, 72-h protocol” value [3, 9]?
Its value is “without a significant response”.

And the “% MN-BN response in individual experiment(s), Lab B, 48-h protocol” value (from here on “% MN-BN response … Lab B, 48-h protocol”) [3, 10]?
Its value is “without a significant response”.

And the “% MN-BN response in individual experiment(s), Lab C, 48-h protocol” value (from here on “% MN-BN response … Lab C, 48-h protocol”) [3, 10]?
The value was “without a significant response”.

What about the “% MN-BN response in individual experiment(s), Lab D, 48-h protocol” value [3, 10] of the same compound?
Its value is “no significant increase”.

With `Cn1c(N)nc2c3cccnc3ccc21` [2-Amino-3-methylimidazo[4,5-f]quinolone] as the compound, how does the “% BN (excessive cytotoxicity)” value ([4]; at ≥150 µg/cm^2, 48-h protocol, Lab A) read?
The value was under 20 % BN.

What about the “detection in the RS Comet assay” value ([1]; after multiple treatments) of the same compound?
Its value is “not detected”.

And the IARC class ([5]; carcinogen classification)?
The IARC class was 2A.

What about the “% MN-BN response in individual experiment(s), Lab A, 72-h protocol” value (from here on “% MN-BN response … Lab A, 72-h protocol”) [3, 9] of the same compound?
Its value is “Significant increases”.

What about the “% MN-BN response in individual experiment(s), Lab A, 48-h protocol” value (from here on “% MN-BN response … Lab A, 48-h protocol”) [3, 10] of the same compound?
The value was “no increase”.

Which “top dose, limited by precipitation on the surface of the skin tissues” value ([4]; lab(s) as stated in the text) does the source give for `Cc1c2ccccc2c(C)c2c1ccc1ccccc12` [7,12-Dimethylbenz[a]thracene (DMBA), 7,12-Dimethylbenz[a]anthracene] here?
The value was 240 µg/cm^2.

What about the “result in a previous RSMN study” value (RS tissues; % VCC not used as cytotoxicity measure, higher doses tested) of the same compound?
Its value is “positive”.

And the “% MN-BN response … Lab A, 48-h protocol” value [3]?
Its value is “did not increase”.

And the “% MN-BN response … Lab A, 72-h protocol” value [3]?
Its value is “did not induce an increase”.

What about the “classification in the RSMN assay by Lab A” value (from here on “classification … by Lab A”) [3] of the same compound?
Its value is “negative”.

Which “RSMN result with the 72-h protocol” value (RS tissues) does the source give for `c1ccc2c(c1)cc1ccc3cccc4ccc2c1c34` [B[a]P] here?
Its value is “positive results”.

For `[Cl][Cd][Cl]` [Cadmium chloride (CdCl2), Cadmium chloride], which “top/maximum dose tested, limited by excessive or strong cytotoxicity” value (from here on “top/maximum dose tested, limited”) ([4]; lab(s) as stated in the text) is on record?
Its value is 160 µg/cm^2.

And the “doses that caused 50% cytotoxicity” value ([4]; Lab A, 48-h protocol, Phase 2c)?
Its value is 100–160 µg/cm^2.

And the “in vivo comet assay result, multiple tissues” value (multiple tissues)?
The value was “negative results”.

And the “classification … by Lab A” value ([3]; overall call)?
The value was “positive”.

And the “classification … by Lab B” value ([3]; overall call)?
Its value is “negative”.

What about the “classification in the RSMN assay by Lab C” value ([3]; overall call) of the same compound?
The value was “positive”.

What about the “% MN-BN response … Lab A, 72-h protocol” value [3, 9] of the same compound?
Its value is “clear increase”.

And the “% MN-BN response … Lab B, 72-h protocol” value [3, 9]?
Its value is “negative results”.

And the “% MN-BN response … Lab A, 48-h protocol” value [3, 10]?
The value was “without any significant increase”.

And the “% MN-BN response … Lab B, 48-h protocol” value [3, 10]?
Its value is “No detectable increase”.

And the “% MN-BN response … Lab C, 48-h protocol” value [3, 10]?
Its value is “negative”.

And the “in vivo comet assay result, stomach” value (stomach, liver)?
Its value is “positive”.

Which “maximum dose tested without exceeding the cytotoxicity thresholds” value ([4]; lack of excessive cytotoxicity, 48-h protocol) does the source give for `C1=Cc2cc3cccc4ccc5ccc1c2c5c43` [Cyclopenta[c,d]pyrene (CPPE), Cyclopenta[c,d]pyrene] here?
The value was 1600 µg/cm^2.

And the “mouse lymphoma assay” value (mouse lymphoma cells)?
Its value is “positive”.

And the skin tumours ([5]; mice, dermal application, ref Supplementary Table S1)?
Its skin tumours is “induce skin tumours”.

And the “classification … by Lab B” value ([3]; overall call)?
The value was “positive”.

What about the “% MN-BN response … Lab B, 72-h protocol” value [3, 9] of the same compound?
The value was “significant increase”.

And the “% MN-BN response … Lab C, 48-h protocol” value [3, 10]?
The value was “negative results”.

For `Nc1ccn([C@@H]2O[C@H](CO)[C@@H](O)[C@@H]2O)c(=O)n1` [Cytosine arabinoside], which “top/maximum dose tested, limited” value ([4]; lab(s) as stated in the text) is on record?
The value was 48 µg/cm^2.

What about the “in vitro MN tests” value [6] of the same compound?
The value was “positive”.

What about the “in vitro chromosome aberration tests” value [7] of the same compound?
The value was “positive”.

And the “classification … by Lab B” value ([3]; overall call)?
The value was “negative”.

What about the “% MN-BN response … Lab B, 72-h protocol” value [3, 9] of the same compound?
The value was “Negative results”.

And the “% MN-BN response … Lab B, 48-h protocol” value [3, 10]?
The value was “did not show a significant increase”.

For `C=CCc1ccc(O)c(OC)c1` [Eugenol], which “top/maximum dose tested, limited” value ([4]; lab(s) as stated in the text) is on record?
The value was 80–100 µg/cm^2.

And the “in vitro MN tests” value ([6]; ref Supplementary Table S1)?
The value was “positive findings”.

And the “in vitro chromosome aberration tests” value ([7]; ref Supplementary Table S1)?
Its value is “positive findings”.

What about the carcinogenicity tests ([5]; ref Supplementary Table S1) of the same compound?
The carcinogenicity tests was “negative”.

And the “classification … by Lab A” value ([3]; overall call)?
Its value is “positive”.

What about the “% MN-BN response … Lab A, 72-h protocol” value [3, 9] of the same compound?
Its value is “significant increase in the % MN-BN was seen at the two highest doses”.

What about the “% MN-BN response … Lab A, 48-h protocol” value [3, 10] of the same compound?
Its value is “significant increase in % MN-BN only at one mid-dose”.

With `CC(=O)N(O)c1ccc2c(c1)Cc1ccccc1-2` [N-hydroxy-2-acetylaminofluorene] as the compound, how does the “detection of DNA damage, RS Comet assay versus RSMN assay” value [1] read?
The value was “more efficiently detected in the RS Comet assay than in the RSMN assay”.

Which “detection of DNA damage, RS Comet assay versus RSMN assay” value [1] does the source give for `ONc1ccc2c(c1)Cc1ccccc1-2` [N-hydroxy-2-aminofluorene] here?
The value was “more efficiently detected in the RS Comet assay than in the RSMN assay”.

Which “RSMN result with the 72-h protocol” value (RS tissues) does the source give for `O=P1(N(CCCl)CCCl)NCCCO1` (stereo not drawn) [cyclophosphamide] here?
The value was “positive results”.

— paper PMC8081377 (Mutagenesis, 2021)
